# What was measured:
# CepI wild type = target: T1, CepI wild type (Burkholderia cenocepacia, UniProt B4EMD2); experiment: CepI activity assay (DCPIP), IC50 determination, wild type enzyme; format: biochemical; settings: 70 μM C8-ACP, 40 μM SAM, 4 μM CepI, read-out: compound 8b IC50
# T1 sequence (B4EMD2 1-202): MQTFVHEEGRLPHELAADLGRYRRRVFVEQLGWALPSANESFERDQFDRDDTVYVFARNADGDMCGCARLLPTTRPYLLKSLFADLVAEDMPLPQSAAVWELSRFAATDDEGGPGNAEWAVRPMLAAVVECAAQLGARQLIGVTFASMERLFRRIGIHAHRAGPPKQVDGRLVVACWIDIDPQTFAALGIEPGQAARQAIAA
# Procedure: Wild type and mutant CepI were expressed in Escherichia coli BL21(DE3) cells and purified as previously described ([Scoffone et al., 2016]).
# CepI activity was determined according to [Christensen et al. (2013)]. Reaction mixtures contained 50 mM 4-(2-hydroxyethyl)-1-piperazineethanesulfonic acid (HEPES) pH 7.5, 0.005% Nonidet P-40, 0.13 mM 2,6-dichlorophenylindophenol (DCPIP), 70 μM Octanoyl-ACP (C8-ACP, prepared as reported previously) ([Quadri et al., 1998]; [Cronan and Thomas, 2009]), 40 μM S-adenosyl methionine (SAM), 4 μM CepI.
# IC50 was determined measuring the enzyme activity in presence of different concentrations of compound, and values determined with the following equation ([Copeland, 2000]), where A[I] is the enzyme activity at inhibitor concentration [I] and A[0] is the enzyme activity without inhibitor.
# CepI R24Q mutant = target: T2, CepI R24Q mutant (Burkholderia cenocepacia, UniProt B4EMD2, R24Q); experiment: CepI activity assay (DCPIP), IC50 determination, R24Q mutant; format: biochemical
# T2 sequence (B4EMD2 1-202 R24Q): T1 sequence (B4EMD2 1-202)
# CepI E40Q mutant = target: T3, CepI E40Q mutant (Burkholderia cenocepacia, UniProt B4EMD2, E40Q); experiment: CepI activity assay (DCPIP), IC50 determination, E40Q mutant; format: biochemical
# T3 sequence (B4EMD2 1-202 E40Q): T1 sequence (B4EMD2 1-202)
# CepI S41A mutant = target: T4, CepI S41A mutant (Burkholderia cenocepacia, UniProt B4EMD2, S41A); experiment: CepI activity assay (DCPIP), IC50 determination, S41A mutant; format: biochemical
# T4 sequence (B4EMD2 1-202 S41A): T1 sequence (B4EMD2 1-202)
# CepI S41R mutant = target: T5, CepI S41R mutant (Burkholderia cenocepacia, UniProt B4EMD2, S41R); experiment: CepI activity assay (DCPIP), IC50 determination, S41R mutant; format: biochemical; settings: compound 8b IC50, CepI S41R; 70 μM C8-ACP, 40 μM SAM, 4 μM CepI
# T5 sequence (B4EMD2 1-202 S41R): T1 sequence (B4EMD2 1-202)
# CepI Q46R mutant = target: T6, CepI Q46R mutant (Burkholderia cenocepacia, UniProt B4EMD2, Q46R); experiment: CepI activity assay (DCPIP), IC50 determination, Q46R mutant; format: biochemical
# T6 sequence (B4EMD2 1-202 Q46R): T1 sequence (B4EMD2 1-202)
# B. cenocepacia J2315 = experiment: Proteomic analysis (2-DE, LC-MS/MS) of treated cells compared with the ΔcepI strain; format: cell-based, Burkholderia cenocepacia; settings: J2315 cells treated with 25 μM 8b, compared with untreated J2315; same as ΔcepI profile
# Procedure: Burkholderia cenocepacia ΔcepI ([Udine et al., 2013]) and J2315 (with or without 25 μM of 8b compound) were grown in 10 ml of LB medium until OD600 nm > 2. Cells were then harvested, resuspended in 0.2 ml of Tris-HCl 50 mM, pH 7.5, disrupted by sonication, and centrifuged at 12,000 rpm for 1 h at 4°C.
# The amount of proteins present in the supernatant was quantified by bicinchoninic acid method ([Smith et al., 1985]), then 300 μg were precipitated with 10% (v/v) trichloroacetic acid. The obtained protein pellet was dissolved in 125 μL of rehydration buffer (8 M urea, 4% CHAPS (w/v), 65 mM DTE, 0.8% carrier ampholytes (v/v) and 0.5% bromophenol blue) and loaded onto 7 cm IPG strips, with nonlinear pH 3–10 gradient range (GE Healthcare), and strips rehydrated for 1 h at 20°C. The first-dimensional IEF was carried out at 15°C using an Ettan IPGphor system (GE Healthcare), by applying 30 V for 8 h, 120 V for 1 h, 500 V for 0.5 h, 1000 V for 0.5 h and 5000 V for 6 h, for a total of 29–30 kVh. […] Digital images of stained gels were acquired using VersaDoc Imaging Model 3000 (BioRad) and then subjected to quali/quantitative analysis using the PD Quest (BioRad) version 8.0.1 software. […] The software then determined the amount of spots present and calculated their intensity by applying the following algorithm: peak value (ODs/image units) ^∗σx^∗σy (standard deviations in x and y). […]
smiles,measurement,setting,value
"O=C1C=CC(=O)C(C2NC(=O)[C@H](Cc3ccccc3)NC2=O)=C1 (stereo partly drawn) [8b, (3S)-3-Benzyl-6-(3,6-dioxocyclohexa-1,4-dien-1-yl)piperazine-2,5-dione]",IC50,CepI wild type,7.2 ± 0.2 µM
same,IC50,CepI R24Q mutant,147 ± 17 µM
same,IC50,CepI E40Q mutant,53 ± 2.6 µM
same,IC50,CepI S41A mutant,113 ± 11 µM
same,IC50,CepI S41R mutant,1070 ± 75 µM
same,IC50,CepI Q46R mutant,19.2 ± 3.5 µM
same,compound 8b IC50,"CepI Q46R mutant; CepI Q46R, 70 μM C8-ACP, 40 μM SAM, 4 μM CepI",comparable to wild type CepI
same,density of the 2-DE protein spot of the giant cable pilus protein CblA,B. cenocepacia J2315,higher density

# — paper PMC6079302, “Investigating the Mechanism of Action of Diketopiperazines Inhibitors of the Burkholderia cenocepacia Quorum Sensing Synthase CepI: A Site-Directed Mutagenesis Study” (Frontiers in Pharmacology, 2018)
